≈ marks a conversion by molar mass, not a printed value. Where “and” joins values, the source holds several entries; their conditions need not be identical. Identical values can stand only once. Entries after “also recorded” stand apart in the source; their conditions may differ.
Legend:
[1] = test system: S. aureus strain USA300; assay: MIC by broth microdilution (CLSI), strain USA300; assay type: cell-based; settings: Staphylococcus aureus; USA300 (MRSA), Mueller–Hinton broth
Experimental: (§1) Community-acquired MRSA (CA-MRSA) strain USA300, its isogenic agr mutant,[17] the hospital-acquired MRSA (HA-MRSA) strain BH1CC,[18] the HA-MSSA strain BH48[19] and the MSSA strain SH1000[20] were cultured in Mueller–Hinton broth for susceptibility testing or in RPMI-1640 (Gibco) for biofilm formation. For the rat jugular vein catheter infection model, the S. aureus strain USA300 (LAC) lux[21] was used.
(§2) 5HE-C14-TMA and C14-TOA were synthesized as described previously[9] and C14-TTA as described in the Supplementary data available at JAC Online. Stock solutions of the compounds in DMSO at 10–50 mM were further diluted into tissue culture media or sodium chloride for the in vivo experiments. A DMSO solvent control was used in all in vitro experiments. The following antibiotics were used: vancomycin (Vancocin; Flynn Pharma Ltd., Republic of Ireland), daptomycin (Cubicin; Novartis, UK), gentamicin (Hospira, UK) and tigecycline (Tygacil; Pfizer Inc.). MICs were determined by broth microdilution in Mueller–Hinton broth, as recommended by the CLSI.

[2] = test system: S. aureus strain BH1CC; assay: MIC by broth microdilution (CLSI), strain BH1CC; assay type: cell-based; settings: Staphylococcus aureus; BH1CC (MRSA), Mueller–Hinton broth
Experimental: as §1, §2

[3] = test system: MRSA (USA300 JE2 and BH1CC) and MSSA (SH1000 and BH48) strains; assay: MIC by broth microdilution, MRSA and MSSA strains; assay type: cell-based, Staphylococcus aureus; settings: MRSA and MSSA strains investigated
Experimental: as §1, §2

[4] = test system: S. aureus biofilms; assay: Biofilm susceptibility, resazurin-conversion assay on plasma-coated wells; assay type: cell-based, Staphylococcus aureus
Experimental: (§3) Biofilms were formed as previously described to mimic in vivo conditions that promote formation of coagulase-mediated biofilms.[16] Briefly, microtitre plates or glass-bottom culture dishes (MaTek Co., USA) were coated with either 20% (v/v) or 100% (v/v) human plasma, respectively, and inoculated with S. aureus at an OD600 ∼0.2. After 1 h, non-adherent bacteria were aspirated, replaced with fresh RPMI-1640 and biofilms allowed to form over 24 h at 37 °C. Pre-formed biofilms were treated for 24 h with either 5HE-C14-TMA, C14-TOA or C14-TTA or a positive control [ethanol at 40% (v/v)]. Biofilm viability was measured by (i) resazurin-conversion assay (in microtitre wells), or (ii) live/dead imaging (glass-bottom dishes). Conversion of the non-fluorescent redox dye, resazurin into the fluorescent resorufin was performed as described previously.[16] A 44 μM resazurin (Sigma-Aldrich, UK) solution in RPMI-1640 was added to an equal biofilm volume and incubated for 1 h at 37 °C. Fluorescence (excitation 544 nm, emission 590 nm) was quantified using a Perkin Elmer 2030 Multilabel Reader Victor^TM X3. Biofilms were stained with SYTO9 Green (at 13.36 μM) and propidium iodide (at 80 μM) (Molecular Probes®) for 1 h prior to washing. Four representative images at ×40 and ×100 were obtained per experimental group, per experiment using a Zeiss LSM 510 META confocal microscope. Each experiment was repeated at least three times. Fluorescence intensity was quantified using Image J1 software (http://imagej.net/Welcome).

[5] = test system: S. aureus USA300 and SH1000 biofilms; assay: Biofilm viability by live/dead imaging; assay type: cell-based, Staphylococcus aureus; settings: 128 mg/L, 24 h, both strains (USA300 MRSA and SH1000 MSSA), live/dead staining
Experimental: as §3, with “Four representative images at ×40 and ×100 were obtained per experimental group, per experiment using a Zeiss LSM 510 META confocal microscope. Each experiment was repeated at least three times.” left out

[6] = test system: Primary human umbilical vein endothelial cells (HUVECs); assay: MTT cell viability assay, HUVEC; assay type: cell-based; settings: HUVECs
Experimental: (§4) Human keratinocyte (HaCaT) cells were cultured in DMEM supplemented with 10% (v/v) FBS. Primary human umbilical vein endothelial cells (HUVECs) were cultured in EGM™-2 Bulletkit (Lonza) medium. HaCaT and HUVECs were harvested using TrypLE^TM Express (Gibco). Cells were seeded in microtitre plates at 3 × 10^5 cells/mL and incubated for 24 h at 37 °C with an antimicrobial compound ([…]) or Triton X100 at 1% (v/v). After removing the medium, cells were incubated with 500 mg/L MTT (Sigma-Aldrich) for 4 h. The crystals formed were solubilized with DMSO. Absorbance was recorded at 560 nm and the CC50 was determined.

[7] = MTT cell viability assay, HUVEC; assay type: cell-based, human; settings: human, primary HUVECs (umbilical vein endothelial cells); HUVEC, MTT, 24 h
Experimental: as §4

[8] = test system: S. aureus; settings: cited from earlier work
[9] = test system: S. aureus USA300lux biofilm; assay: Rat IVC (jugular vein catheter) biofilm infection model; assay type: in vivo; settings: CLS 512 mg/L, 40 μL daily for 5 days
Experimental: Rats (male, Sprague–Dawley) were pre-implanted with jugular vein polyurethane catheters (13.5 cm long, outside diameter 1.1 mm, inside diameter 0.6 mm) (Charles River, UK). Daily flushing was performed with 150 μL sodium chloride [0.1% (w/v)] following introduction of 40 μL heparin (100 IU), sodium chloride 0.1% (w/v) within the lumen. IVC-biofilm infection was developed as previously reported.[24–26] Catheters were inoculated with 40 μL S. aureus USA300lux suspension at 1 × 10^4 cfu/mL ‘locked’ within the catheter for 1 day. Intravenous vancomycin (50 mg/kg) was administered twice daily at 12 h intervals to prevent systemic spread of infection. CLS consisting of 5HE-C14-TMA (40 μL) at 512 mg/L in sodium chloride 0.1% (w/v) was administered daily for 5 days upon development of infection. After 5 days of treatment, catheters were removed and luminescence imaged using a Perkin Elmer IVIS Spectrum instrument (exposure, 20 s; binning: 4, f1). Bacteria were harvested from the catheters by treatment with TrypLE^TM Express (Gibco) and washing prior to determining viable counts.

[10] = test system: S. aureus strain SH1000; assay: MIC by broth microdilution (CLSI), strain SH1000; assay type: cell-based; settings: Staphylococcus aureus; SH1000 (MSSA), Mueller–Hinton broth
Experimental: as §1, §2

[11] = test system: staphylococcal membrane; parameters: method as in PMID 24592914; settings: binding to the staphylococcal membrane, single site model; cited from earlier work
[12] = Iron chelation; assay type: physicochemical; settings: data not shown
[13] = test system: S. aureus transmembrane potential; assay: Dissipation of bacterial membrane potential, DiSC3(5) fluorescence; assay type: cell-based, Staphylococcus aureus; settings: 30 μM
Experimental: Transmembrane potential was determined as described by Breeuwer and Abee[23] Staphylococcal cells were resuspended in potassium phosphate buffer (50 mM, pH 7) containing 5 μM of the cationic fluorescent dye DiSC3(5) (Invitrogen) and fluorescence determined (excitation 650 nm, emission 680 nm).

CCCCCCCCCCCCCC(=O)C1=C(O)N[C@@H](CCO)C1=O [5HE-C14-TMA, 5-hydroxyethyl-3-tetradecanoyltetramic acid]
MIC [1]: 6.25 µM and 2 µg/mL
MIC [2]: 6.25 µM and 2 µg/mL
MIC [3]: 2 mg/L (≈ 5.66 µM)
MIC ([3]; Staphylococcus aureus): 2 to 4 mg/L (≈ 5.66 to 11.3 µM)
Reduction of biofilm viability ([4]; 1024 mg/L, 24 h treatment, depending on the strain, resazurin): 7–20 fold
Concentration giving complete killing / eradication of S. aureus biofilms ([4]; MRSA and MSSA biofilms): 512 to 1024 mg/L
Biofilm killing [5]: > 50%
Selectivity index (SI, CC50/MIC) [6]: 3.5
CC50 at 24 h [7]: 19 µM and 7 µg/mL
Increase in growth inhibitory activity relative to 5HE-C10-TMA ([8]; planktonic S. aureus): 8 fold
MIC ([8]; towards S. aureus): 12.5 µM (≈ 4.42 µg/mL)
Catheter biofilm after CLS treatment [9]: effectively eradicated; also recorded: highly effective in the eradication of MRSA biofilm
MIC [10]: 6.25 µM and 2 µg/mL
Kd [11]: 4 µM
Iron chelation [12]: is an iron chelator
Membrane depolarization (DiSC3(5) fluorescence) [13]: increase in fluorescence, indicative of membrane depolarization
